Test results reported in patent US8426429B2, “2-amino-quinazoline derivatives useful as inhibitors of β-secretase (BACE)” (Jansssen Pharmaceutica N.V., priority 2004, dated 2013).

Columns and labels:
Assay type in all cases: biochemical
[1] = molecular target: T1, β-secretase (BACE) (Homo sapiens, UniProt P56817); assay: BACE Assay-1 (MCA-substrate, IC50); settings: procedure of Example 158
T1 construct: purchased Panvera
Experimental: The following standards are reagents were used in this assay: Sodium Citrate trisodium salt dihydrate (Sigma), Citric Acid monohydrate (Merck), PEG8000 (Sigma), MCA-substrate (Bachem), β-secretase (BACE) (Panvera), 96-well plate zwart (Costar (Elscolab)), StatVal (Bachem).
The following standard assay buffer solution was prepared and used in this assay: 0.05 M, pH 5.0 mixture of sodium citrate trisodium salt dihydrate (9.56 g), citric acid monohydrate (3.68 g) and PEG8000 (0.50 g).
The MCA-substrate stock solution was prepared by mixing 10 mg MCA-substrate with 5 mL DMSO for a final solution concentration of 2.0 mg/mL. The substrate work solution was prepared by mixing 0.1 mL substrate in 1.90 mL assay buffer for a final concentration of 0.05 mM. The β-secretase (BACE) work solution was prepared by mixing 8 μL BACE in 2 mL assay buffer for a final concentration of 10 µg/mL.
The screen procedure for this assay was as follows. 60 μL of assay buffer was pippeted into each well of a 96-well plate. To each well was then pipetted 1 μL of test compound at the selected concentration. To each well was then added 20 μL of the β-secretase work solution and […] of the MCA-substrate stock solution.
The procedure for the blank was as follows. 80 μL of assay buffer was pipetted into each well to be used as a blank control. To each well was then added 1 μL of DMSO and 20 μL of MCA-substrate solution in each well.
The procedure for the positive control was as follows. 60 μL of assay buffer was pipetted into each well to be used as a positive control. To each well was then added 1 μL of DMSO, 20 μL of BACE work solution and 20 μL of MCA-substrate stock solution.
For test compounds, measured at multiple concentrations, the measured T0 and T60 values were used to calculate an IC50 value using Graphpad Software (or PIR).

[2] = molecular target: T1, β-secretase (BACE); assay: BACE FS1 % Inhibition Assay; settings: read-out: % Inhibition (FS)
Procedure, shortened: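 Percent inhibition per compound concentration was referenced to vehicle-treated enzyme and no-enzyme wells. Enzyme at a 4 μg/mL working stock plus compound was mixed for 20 min at room temperature before the FS1 substrate (300 μg/mL working stock) was added for a 1 h room-temperature reaction.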

[3] = molecular target: T1, β-secretase (BACE); assay: BACE Assay-2 (FS1 substrate, IC50 and Ki); settings: procedure of Example 159, FS1 substrate
Experimental: (§1) The FS1-substrate stock solution was prepared in DMSO as a 10 mg/mL solution. The FS1-substrate working solution was prepared by diluting the 10 mg/mL stock solution with substrate assay buffer to a final concentration of […]. The β-secretase (BACE) working solution was prepared by diluting a 0.83 mg/mL BACE stock solution with enzyme assay buffer to a final concentration of 4 μg/mL.
Test compounds were dissolved in DMSO at 10 mM.
(§2) The procedure for this assay was as follows: 15 μL of BACE working solution was pipetted into each well of a 96-well plate. To each well was then pipetted 2 μL of test compound at the selected concentration. Test compound and BACE were then mixed with a pipettor and incubated for 20 min at room temperature. To each well was then added 10 μL of the FS1 substrate working solution.
(§3) The procedure for the positive control was as follows:15 μL of BACE working solution was pipetted into each well to be used as a positive control. To each well was then pipetted 2 μL of vehicle. Vehicle and BACE were then mixed with a pipettor and incubated for 20 min at room temperature. To each well was then added 10 μL of the FS1 substrate working solution.
For test compounds, measured at multiple concentrations, the measured T0 and T60 values were used to calculate an IC50 value using Graphpad Software (or PIR). For test compounds, Ki inhibition was determined as follows: For each compound concentration and positive control, rate of cleavage of substrate (Vi, where i=compound concentration in μM) was determined as Δ Fluorescence/Δ time (min). Cleavage rates (Vi) were plotted as a function of inhibitor concentration in μM [I]. The Ki was then determined by fitting the following equation to the graph of [I] vs Vi Y=aVmax/(50+24*(1+X/Ki)),

[4] = molecular target: T1, β-secretase (BACE); assay: BACE % Inhibition Assay ((Aedens)-[…]-(Dabcyl K-amide) substrate); settings: % error ±10%
Experimental: as §1, with “substrate” for “FS1-substrate”
Test compounds were dissolved in DMSO to 10 mM.
as §2, with “The screening” for “The”, “the” for “the FS1”, “solution. The plates were then incubated for 1 hour at room temperature.” for “solution.”
The procedure for the blank was as follows. 15 μL of assay buffer was pipetted into each well to be used as a blank control. To each well was then added 2 μL of vehicle and 10 μL of substrate working solution. The plates were then incubated for 1 hour at room temperature.
as §3, with “follows: 15 μl” for “follows:15 μL”, “the” for “the FS1”, “solution. The plates were the incubated for 1 hour at room temperature.” for “solution.”
For test compounds, % inhibition was determined at each concentration as follows: […]

T1 sequence (P56817 46-501): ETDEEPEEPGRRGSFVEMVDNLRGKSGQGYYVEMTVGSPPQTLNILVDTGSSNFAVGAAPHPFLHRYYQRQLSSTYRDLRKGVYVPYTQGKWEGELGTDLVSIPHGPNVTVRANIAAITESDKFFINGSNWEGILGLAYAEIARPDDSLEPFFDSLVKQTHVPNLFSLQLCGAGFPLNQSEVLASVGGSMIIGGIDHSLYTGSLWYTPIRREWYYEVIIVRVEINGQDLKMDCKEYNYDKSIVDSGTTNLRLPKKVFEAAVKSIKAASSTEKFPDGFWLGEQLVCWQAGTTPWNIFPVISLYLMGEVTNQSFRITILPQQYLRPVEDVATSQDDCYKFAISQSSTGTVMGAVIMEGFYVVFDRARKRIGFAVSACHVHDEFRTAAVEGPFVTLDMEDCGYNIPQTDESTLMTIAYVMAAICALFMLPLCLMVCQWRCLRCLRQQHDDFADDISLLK

Which IC50 [1] does the source give for `CCCN1Cc2cc(Oc3cccc(CNCc4ccccc4OC)c3)ccc2N=C1N` [Compound 335] here?
Its IC50 is 0.24 µM.

With `CN(C(=O)CC[C@@H](C1CCCCC1)N1Cc2cc(Oc3ccccc3)ccc2N=C1N)C1CCC(=O)CC1` [Compound 711] as the compound, how does the inhibition at 0.3 µM ([2]; 0.3 μM compound, FS1 substrate) read?
Its inhibition at 0.3 µM is < 30%.

What about the inhibition at 1 µM ([2]; 1 μM compound, FS1 substrate) of the same compound?
Its inhibition at 1 µM is 43%.

And the inhibition at 3 µM ([2]; 3 μM compound, FS1 substrate)?
The inhibition at 3 µM was 113%.

And the Ki [3]?
Its Ki is 0.45 µM.

Which IC50 [1] does the source give for `CCCN1Cc2cc(Oc3cccc(CN(C)Cc4c(C)cc(C)cc4C)c3)ccc2N=C1N` [Compound 464] here?
Its IC50 is 1.3 µM.

With `NC1=Nc2ccc(Oc3ccccc3)cc2CN1[C@H](CNC(=O)C1CCCCC1)C1CCCCC1` [Compound 484] as the compound, how does the IC50 [1] read?
The IC50 was 1.1 µM.

And the inhibition at 0.3 µM ([2]; 0.3 μM test compound)?
Its inhibition at 0.3 µM is < 30%.

What about the inhibition at 1 µM ([2]; 1 μM test compound) of the same compound?
Its inhibition at 1 µM is < 30%.

And the inhibition at 3 µM ([2]; 3 μM test compound)?
Its inhibition at 3 µM is 62%.

What about the Ki [3] of the same compound?
Its Ki is 0.74 µM.

Which inhibition at 0.3 µM ([4]; 0.3 μM compound) does the source give for `CC(C)CCC(=O)NCC(C1CCCCC1)N1Cc2cc(Oc3ccccc3)ccc2N=C1N` (stereo not drawn) [Compound 388] here?
Its inhibition at 0.3 µM is 107%.

And the inhibition at 1 µM ([4]; 1 μM compound)?
The inhibition at 1 µM was 119%.

What about the inhibition at 3 µM ([4]; 3 μM compound) of the same compound?
Its inhibition at 3 µM is 119%.

And the Ki [3]?
Its Ki is 0.063 µM.

What does the source list for `COC(=O)[C@H]1CC[C@H](NC(=O)CC[C@@H](C2CCOCC2)N2Cc3cc(Oc4ccccc4)ccc3N=C2N)CC1` [Compound 747]?
inhibition at 0.3 µM ([2]; 0.3 μM compound, FS1 substrate): 41%; inhibition at 1 µM ([2]; 1 μM compound, FS1 substrate): 74%; inhibition at 3 µM ([2]; 3 μM compound, FS1 substrate): 104%; Ki [3]: 0.088 µM

With `CC(C)C(CNC(=O)C12CC3CC(CC(C3)C1)C2)N1Cc2cc(Oc3ccccc3)ccc2N=C1N` (stereo not drawn) [Compound 562] as the compound, how does the inhibition at 0.3 µM ([2]; 0.3 μM test compound) read?
The inhibition at 0.3 µM was 106%.

What about the inhibition at 1 µM ([2]; 1 μM test compound) of the same compound?
Its inhibition at 1 µM is 118%.

What about the inhibition at 3 µM ([2]; 3 μM test compound) of the same compound?
Its inhibition at 3 µM is 128%.

And the Ki [3]?
Its Ki is 0.026 µM.

Which IC50 [1] does the source give for `CSc1ccccc1-c1ccc2c(c1)CN(Cc1cccc(C(=O)N(C)C3CCCCC3)c1)C(N)=N2` [Compound 322] here?
The IC50 was 0.14 µM.

And the inhibition at 0.3 µM ([2]; 0.3 μM test compound)?
Its inhibition at 0.3 µM is < 30%.

And the inhibition at 1 µM ([2]; 1 μM test compound)?
The inhibition at 1 µM was < 30%.

What about the inhibition at 3 µM ([2]; 3 μM test compound) of the same compound?
The inhibition at 3 µM was 95%.

And the Ki [3]?
The Ki was 0.29 µM.

With `CCCN1Cc2cc(Oc3cccc(CNCc4c(OC)cccc4OC)c3)ccc2N=C1N` [Compound 340] as the compound, how does the IC50 [1] read?
Its IC50 is 2 µM.

For `NC1=Nc2ccc(Oc3cccc(NS(=O)(=O)c4ccccc4)c3)cc2CN1CCCCC(=O)N(C1CCCCC1)C1CCCCC1` [Compound 113], which IC50 [1] is on record?
The IC50 was 0.99 µM.

For `CCCN1Cc2cc(Oc3cccc(CNCc4c(C)cc(C)cc4C)c3)ccc2N=C1N` [Compound 344], which IC50 [1] is on record?
Its IC50 is 0.058 µM.

How did the IC50 [1] turn out when `CCCN1Cc2cc(Oc3cccc(CNC(=O)c4c(C)cc(C)cc4C)c3)ccc2N=C1N` [Compound 533] was run?
Its IC50 is 0.17 µM.

For `CN(CCCCC(=O)O)C(=O)CC[C@@H](C1CCCCC1)N1Cc2cc(Oc3ccccc3)ccc2N=C1N` [Compound 752], which inhibition at 0.3 µM ([2]; 0.3 μM compound, FS1 substrate) is on record?
The inhibition at 0.3 µM was 45%.

What about the inhibition at 1 µM ([2]; 1 μM compound, FS1 substrate) of the same compound?
The inhibition at 1 µM was 81%.

What about the inhibition at 3 µM ([2]; 3 μM compound, FS1 substrate) of the same compound?
The inhibition at 3 µM was 109%.

What about the Ki [3] of the same compound?
Its Ki is 0.221 µM.

Which results are given for `CC(C)N1CCC(N(C)C(=O)CC[C@@H](C2CCCCC2)N2Cc3cc(Oc4ccccc4)ccc3N=C2N)CC1` [Compound 728]?
inhibition at 0.3 µM ([2]; 0.3 μM compound, FS1 substrate): 43%; inhibition at 1 µM ([2]; 1 μM compound, FS1 substrate): 58%; inhibition at 3 µM ([2]; 3 μM compound, FS1 substrate): 97%; Ki [3]: 0.38 µM

For `CCCN1Cc2cc(Oc3cccc(CNS(=O)(=O)c4ccccc4)c3)ccc2N=C1N` [Compound 225], which IC50 [1] is on record?
The IC50 was 2.9 µM.

`CN(C(=O)CCC(C1CCCCC1)N1Cc2cc(Oc3ccccc3)ccc2N=C1N)C(COCc1ccccc1)C(=O)O` (stereo not drawn) [Compound 781] was tested. Which inhibition at 0.3 µM ([2]; 0.3 μM compound, FS1 substrate) did it give?
The inhibition at 0.3 µM was 106%.

What about the inhibition at 1 µM ([2]; 1 μM compound, FS1 substrate) of the same compound?
Its inhibition at 1 µM is 109%.

And the inhibition at 3 µM ([2]; 3 μM compound, FS1 substrate)?
The inhibition at 3 µM was 121%.

And the Ki [3]?
Its Ki is 0.038 µM.

For `NC1=Nc2ccc(-c3ccccc3)cc2CN1CCNC(=O)Cc1ccccc1` [Compound 595], which inhibition at 0.3 µM ([2]; 0.3 μM test compound) is on record?
Its inhibition at 0.3 µM is 32%.

And the inhibition at 1 µM ([2]; 1 μM test compound)?
Its inhibition at 1 µM is 70%.

What about the inhibition at 3 µM ([2]; 3 μM test compound) of the same compound?
The inhibition at 3 µM was 104%.

What about the Ki [3] of the same compound?
The Ki was 0.33 µM.

With `CCCN1Cc2cc(Oc3cccc(CNCc4cccc(O)c4)c3)ccc2N=C1N` [Compound 305] as the compound, how does the IC50 [1] read?
Its IC50 is 1.4 µM.

With `CCCN1Cc2cc(Oc3cccc(CNCCCc4ccccc4)c3)ccc2N=C1N` [Compound 430] as the compound, how does the IC50 [1] read?
The IC50 was 2.8 µM.

With `CN(C(=O)c1cccc(CN2Cc3cc(-c4ccccc4Oc4ccccc4)ccc3N=C2N)c1)C1CCCCC1` [Compound 326] as the compound, how does the inhibition at 0.3 µM ([2]; 0.3 μM test compound) read?
The inhibition at 0.3 µM was < 30%.

And the inhibition at 1 µM ([2]; 1 μM test compound)?
Its inhibition at 1 µM is 35%.

And the inhibition at 3 µM ([2]; 3 μM test compound)?
Its inhibition at 3 µM is 79%.

And the Ki [3]?
The Ki was 0.42 µM.

With `CN(C(=O)CC[C@@H](C1CCCCC1)N1Cc2cc(Oc3ccccc3)ccc2N=C1N)C1CCC2(CC1)OCCO2` [Compound 710] as the compound, how does the inhibition at 0.3 µM ([2]; 0.3 μM compound, FS1 substrate) read?
The inhibition at 0.3 µM was < 30%.

What about the inhibition at 1 µM ([2]; 1 μM compound, FS1 substrate) of the same compound?
Its inhibition at 1 µM is 68%.

And the inhibition at 3 µM ([2]; 3 μM compound, FS1 substrate)?
Its inhibition at 3 µM is 126%.

What about the Ki [3] of the same compound?
The Ki was 0.3 µM.

`CN(C(=O)CCCN1Cc2cc(C(=O)c3ccccc3)ccc2N=C1N)C1CCCCC1` [Compound 10] was tested. Which IC50 [1] did it give?
The IC50 was 3.7 µM.
